Experimental data reported in article PMC7587962, “Evaluation of Cytotoxicity and α-Glucosidase Inhibitory Activity of Amide and Polyamino-Derivatives of Lupane Triterpenoids” (Molecules, 2020).
Where two headings read alike, the source gives them in different places.

Assays:
SF-268 = experiment: NCI-60 SRB screen: CNS cancer SF-268; assay type: cell-based, human; settings: SF-268
MDA-MB-435 = experiment: NCI-60 SRB screen: melanoma MDA-MB-435; assay type: cell-based, human; settings: MDA-MB-435
LOX IMVI = experiment: NCI-60 SRB screen: melanoma LOX IMVI; assay type: cell-based, human
786-0 = experiment: NCI-60 SRB screen: renal cancer 786-0; assay type: cell-based, human; settings: 786-0
SNB-75 = experiment: NCI-60 SRB screen: CNS cancer SNB-75; assay type: cell-based, human; settings: SNB-75
MDA-MB-468 = experiment: NCI-60 SRB screen: breast cancer MDA-MB-468; assay type: cell-based, human
MCF7 = experiment: NCI-60 SRB screen: breast cancer MCF7; assay type: cell-based; settings: Homo sapiens, 48 h, MCF7
MOLT-4 = experiment: NCI-60 SRB screen: leukemia MOLT-4; assay type: cell-based; settings: Homo sapiens, 48 h, MOLT-4
OVCAR-4 = experiment: NCI-60 SRB screen: ovarian cancer OVCAR-4; assay type: cell-based; settings: Homo sapiens; OVCAR-4; five concentrations, 48 h, SRB; read-out: GI50
CAKI-1 = experiment: NCI-60 SRB screen: renal cancer CAKI-1; assay type: cell-based, human; settings: CAKI-1
NCI-H23 = experiment: NCI-60 SRB screen: non-small cell lung cancer NCI-H23; assay type: cell-based, human; settings: NCI-H23
ACHN = experiment: NCI-60 SRB screen: renal cancer ACHN; assay type: cell-based, human
SF-539 = experiment: NCI-60 SRB screen: CNS cancer SF-539; assay type: cell-based, human; settings: SF-539
OVCAR-3 = experiment: NCI-60 SRB screen: ovarian cancer OVCAR-3; assay type: cell-based, human; settings: OVCAR-3
PC-3 = experiment: NCI-60 SRB screen: prostate cancer PC-3; assay type: cell-based, human; settings: PC-3
[1] = system: 60 human tumor cell lines; experiment: cells
T-47D = experiment: NCI-60 SRB screen: breast cancer T-47D; assay type: cell-based, human; settings: T-47D
NCI-H522 = experiment: NCI-60 SRB screen: non-small cell lung cancer NCI-H522; assay type: cell-based, human; settings: NCI-H522
SN12C = experiment: NCI-60 SRB screen: renal cancer SN12C; assay type: cell-based, human
OVCAR-5 = experiment: NCI-60 SRB screen: ovarian cancer OVCAR-5; assay type: cell-based, human; settings: OVCAR-5
K-562 = experiment: NCI-60 SRB screen: leukemia K-562; assay type: cell-based, human; settings: K-562
OVCAR-8 = experiment: NCI-60 SRB screen: ovarian cancer OVCAR-8; assay type: cell-based, human; settings: OVCAR-8
M14 = experiment: NCI-60 SRB screen: melanoma M14; assay type: cell-based, human; settings: M14
SK-OV-3 = experiment: NCI-60 SRB screen: ovarian cancer SK-OV-3; assay type: cell-based, human; settings: SK-OV-3
BT-549 = experiment: NCI-60 SRB screen: breast cancer BT-549; assay type: cell-based, human; settings: BT-549
UACC-62 = experiment: NCI-60 SRB screen: melanoma UACC-62; assay type: cell-based, human; settings: UACC-62
NCI-H460 = experiment: NCI-60 SRB screen: non-small cell lung cancer NCI-H460; assay type: cell-based; settings: Homo sapiens, 48 h, NCI-H460
RPMI-8226 = experiment: NCI-60 SRB screen: leukemia RPMI-8226; assay type: cell-based; settings: Homo sapiens, 48 h, RPMI-8226
HS 578T = experiment: NCI-60 SRB screen: breast cancer HS 578T; assay type: cell-based, human; settings: HS 578T
Melanoma subpanel = experiment: NCI-60 screen, subpanel Melanoma
SK-MEL-28 = experiment: NCI-60 SRB screen: melanoma SK-MEL-28; assay type: cell-based, human; settings: SK-MEL-28
Ovarian Cancer subpanel = experiment: NCI-60 screen, subpanel Ovarian Cancer
A549/ATCC = experiment: NCI-60 SRB screen: non-small cell lung cancer A549/ATCC; assay type: cell-based, human; settings: A549/ATCC
HL-60(TB) = experiment: NCI-60 SRB screen: leukemia HL-60(TB); assay type: cell-based; settings: Homo sapiens, 48 h, HL-60(TB)
[2] = Homo sapiens, five concentrations, 48 h, SRB, read-out: GI50
[3] = single dose 10 µM, read-out: Percentage Cell Growth
[4] = five concentrations, SRB, read-out: GI50

C=C(C)[C@@H]1CC[C@]2(C(=O)OC)CC[C@]3(C)[C@H](CC[C@@H]4[C@@]5(C)CCC(=NOCCC(=NOCCC#N)NCCC#N)C(C)(C)[C@@H]5CC[C@]43C)[C@@H]12 [Compound 21]
GI50 (SF-268; [2]): 11.4 µM | Percentage Cell Growth (SF-268; single dose 10 µM): 29.14% | GI50 (MDA-MB-435; [2]): 9.7 µM | Percentage Cell Growth (MDA-MB-435; single dose 10 µM): 14.55% | GI50 (LOX IMVI; [2]): 4.32 µM | Percentage Cell Growth (LOX IMVI; single dose 10 µM): 14.56% | Percentage Cell Growth (786-0; single dose 10 µM): −11.47% | GI50 (786-0; [2]): 6.42 µM | GI50 (SNB-75; [2]): 31.2 µM | Percentage Cell Growth (SNB-75; single dose 10 µM): 18.44% | GI50 (MDA-MB-468; [2]): 2.02 µM | Percentage Cell Growth (MDA-MB-468; single dose 10 µM): 4.41% | activity at 10 µM (MCF7; [3]): 12.4% | GI50 (MCF7; [4]): 3.67 µM | activity at 10 µM (MOLT-4; [3]): -26.8% | GI50 (MOLT-4; [4]): 2.52 µM | GI50 (OVCAR-4): 12.3 µM | Percentage Cell Growth (CAKI-1; single dose 10 µM): 18.52% | GI50 (CAKI-1; [2]): 10.2 µM | GI50 (NCI-H23; [2]): 7.59 µM | Percentage Cell Growth (NCI-H23; single dose 10 µM): 21.79% | GI50 (ACHN; [2]): 10.5 µM | Percentage Cell Growth (ACHN; single dose 10 µM): 13.94% | GI50 (SF-539; [2]): 11 µM | Percentage Cell Growth (SF-539; single dose 10 µM): −2.29% | GI50 (OVCAR-3; [2]): 5.17 µM | Percentage Cell Growth (OVCAR-3; single dose 10 µM): −34.55% | GI50 (PC-3; [2]): 2.26 µM | Percentage Cell Growth (PC-3; single dose 10 µM): 4.49% | GI50 ([1]; read-out: GI50 ranges against all panels of NCI60): 2.02 to 50 µM | GI50 ([1]; read-out: MID a, average sensitivity of all cell line (GI50-MID)): 10.2 µM | GI50 (T-47D; Homo sapiens, T47D, five concentrations, 48 h, SRB, read-out: GI50): 3.47 µM | Percentage Cell Growth (T-47D; single dose 10 µM): 15.11% | GI50 (NCI-H522; [2]): 8.34 µM | Percentage Cell Growth (NCI-H522; single dose 10 µM): 13.36% | GI50 (SN12C; [2]): 7.28 µM | Percentage Cell Growth (SN12C; single dose 10 µM): −71.91% | GI50 (OVCAR-5; [2]): 16.7 µM | Percentage Cell Growth (OVCAR-5; single dose 10 µM): 50.59% | GI50 (K-562; Homo sapiens, K562, five concentrations, 48 h, SRB, read-out: GI50): 2.23 µM | Percentage Cell Growth (K-562; single dose 10 µM): 5.42% | GI50 (OVCAR-8; [2]): 9.66 µM | Percentage Cell Growth (OVCAR-8; single dose 10 µM): 13.17% | GI50 (M14; [2]): 11.9 µM | Percentage Cell Growth (M14; single dose 10 µM): 26.57% | GI50 (SK-OV-3; [2]): 10.8 µM | Percentage Cell Growth (SK-OV-3; single dose 10 µM): 34.60% | Percentage Cell Growth (BT-549; single dose 10 µM): 4.40% | GI50 (BT-549; [2]): 11.3 µM | GI50 (UACC-62; [2]): 2.32 µM | Percentage Cell Growth (UACC-62; single dose 10 µM): −25.76% | activity at 10 µM (NCI-H460; [3]): 4.23% | GI50 (NCI-H460; [4]): 11.1 µM | activity at 10 µM (RPMI-8226; [3]): 3.28% | GI50 (RPMI-8226; [4]): 4.91 µM | Percentage Cell Growth (HS 578T; single dose 10 µM): 24.26% | GI50 (HS 578T; [2]): 30.2 µM | MID b, average sensitivity of all cell line of particular subpanel (Melanoma subpanel): 8.81 µM | Selectivity, ratio MID a: MID b (Melanoma subpanel): 1.16 | GI50 (SK-MEL-28; [2]): 17.1 µM | Percentage Cell Growth (SK-MEL-28; single dose 10 µM): 29.25% | MID b, average sensitivity of all cell line of particular subpanel (Ovarian Cancer subpanel): 11.86 µM | Selectivity, ratio MID a: MID b (Ovarian Cancer subpanel): 0.86 | Percentage Cell Growth (A549/ATCC; single dose 10 µM): 15.82% | GI50 (A549/ATCC; [2]): 5.27 µM | activity at 10 µM (HL-60(TB); [3]): 0.9% | GI50 (HL-60(TB); [4]): 5.18 µM
